Measured values taken from patent US20050020588A1, “Cysteine protease inhibitors” (priority 1999, published 2005).

Tests used:
Assay type in all cases: biochemical
Mammalian Cathepsin L = Mammalian Cathepsin L (Homo sapiens, UniProt P07711); experiment: Ki competitive inhibition, cathepsin L; settings: Table 1, second line of each CAP-P2 block; read-out: Ki competitive inhibition measurements vs Mammalian Cathepsin L
Description: (§1) Data were saved as text files and imported into Excel. The initial rates were determined by linear regression and then fitted to the competitive inhibition equation using SigmaPlot.
(§2) Assays were performed essentially as above. For cathepsin L, the buffer used was 100 mM sodium acetate, 1 mM EDTA, pH 5.5 and the substrate was D-Val-Leu-Lys-AMC with a highest concentration of 100 μM. For cathepsin K, the buffer used was 100 mM MES/Tris, 1 mM EDTA, pH 7.0 and the substrate was D-Ala-Leu-Lys-AMC with a highest concentration of 250 μM.

Mammalian Cathepsin K = biological target: T1, Mammalian Cathepsin K (Homo sapiens, UniProt P43235); experiment: Ki competitive inhibition, cathepsin K; settings: Table 1, third line of each CAP-P2 block; read-out: Ki competitive inhibition measurements vs Mammalian Cathepsin K
T1 sequence (P43235 115-329): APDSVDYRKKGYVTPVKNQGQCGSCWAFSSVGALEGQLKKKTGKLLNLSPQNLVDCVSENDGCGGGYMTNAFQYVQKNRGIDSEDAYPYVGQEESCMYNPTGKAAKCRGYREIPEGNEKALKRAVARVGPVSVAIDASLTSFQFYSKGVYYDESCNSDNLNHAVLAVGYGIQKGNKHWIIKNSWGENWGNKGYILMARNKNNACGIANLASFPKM
Description: as §2
Convenient assays for cathepsin K arere carried out using human recombinant enzyme. Standard assay conditions for the determination of kinetic constants used a fluorogenic peptide substrate, typically H-D-Ala-Leu-Lys-AMC, and were determined in either 100 mM Mes/Tris, pH 7.0 containing 1 mM EDTA and 10 mM 2-mercaptoethanol or 100 mM Na acetate, pH 5.5 containing 5 mM EDTA and 20 mM cysteine. The enzyme concentration used was 5 nM. The stock substrate solution was prepared at 10 mM in DMSO. Screens were carried out at a fixed substrate concentration of 60 μM and detailed kinetic studies with doubling dilutions of substrate from 250 μM. The total DMSO concentration in the assay was kept below 3%. All assays were conducted at ambient temperature. Product fluorescence (excitation at 390 nm, emission at 460 nm) was monitored with a Labsystems Fluoroskan Ascent fluorescent plate reader. Product progress curves were generated over 15 minutes following generation of AMC product.
Potential inhibitors are screened using the above assay with variable concentrations of test compound. Reactions were initiated by addition of enzyme to buffered solutions of substrate and inhibitor. Ki values were calculated according to equation 1 [formula] where ν0 is the velocity of the reaction, V is the maximal velocity, S is the concentration of substrate with Michaelis constant of KM, and I is the concentration of inhibitor. Determination of Falcipain 2 Proteolytic Catalytic Activity

Mammalian Cathepsin S = Mammalian Cathepsin S (Homo sapiens, UniProt P25774); experiment: Ki competitive inhibition, mammalian cathepsin S; settings: Table 1, first line of each CAP-P2 block; read-out: Ki competitive inhibition measurements vs Mammalian Cathepsin S
Description: Cathepsin S (Mammalian, murine and rat)
Assays were performed in 100 mM sodium phosphate, 100 mM NaCl, pH 6.5 (buffer) in white 384 well plates (Coming Costar). Eight inhibitors were assayed per plate.
Inhibitor dilutions were performed on a 96 well V-bottomed polypropylene plate (Corning Costar). 100 μl of buffer was placed in wells 2-5 and 7-12 of rows A, B, C and D. Sufficient of each inhibitor at 10 mM in DMSO was placed into wells A1-D1 and A6-D6 to give the desired final concentration when the volume in the well was made up to 200 μl with buffer. Column 1 was made up to 200 μl with buffer, mixed by aspirating and dispensing 100 μl in the well, and 100 μl transferred to column 2. The pipette tips were changed and the mixing and transferral repeated to column 5. This process was repeated for columns 6-10.
Substrate dilutions were performed on a 96 deep well polypropylene plate (Beckman Coulter). 280 μl of buffer was placed in wells B-H of columns 1 and 2.70 μl of 10 mM boc-Val-Leu-Lys-AMC was placed in A1 and A2. 2×250 μl of buffer was added to wells A1 and A2, mixed by aspirating and dispensing 280 μl in the well, and 280 μl transferred to row B. The pipette tips were changed and the process repeated down the plate to row H.
Column 1 of the substrate dilution plate was distributed at 10 μl per well into alternate rows beginning at row A. Column 2 was distributed to alternate rows beginning at row B. Row A of the inhibitor dilution plate was distributed at 10 μl per well to alternate rows and columns starting at A1. Row B was distributed to alternate rows and columns starting at A2. Row C was distributed to alternate rows and columns starting at B1 and row D was distributed to alternate rows and columns starting at B2. The assay was started by the addition of 30 μl per well of 20 nM cathepsin S in buffer containing 10 mM 2-mercaptoethanol.
as §1

Sequence of Mammalian Cathepsin L (P07711 114-333): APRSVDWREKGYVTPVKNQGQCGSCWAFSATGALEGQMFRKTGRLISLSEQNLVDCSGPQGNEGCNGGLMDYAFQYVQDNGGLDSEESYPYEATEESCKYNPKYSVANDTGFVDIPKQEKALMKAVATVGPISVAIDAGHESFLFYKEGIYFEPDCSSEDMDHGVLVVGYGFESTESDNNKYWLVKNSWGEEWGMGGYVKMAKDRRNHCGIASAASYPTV
Sequence of Mammalian Cathepsin S (P25774 115-331): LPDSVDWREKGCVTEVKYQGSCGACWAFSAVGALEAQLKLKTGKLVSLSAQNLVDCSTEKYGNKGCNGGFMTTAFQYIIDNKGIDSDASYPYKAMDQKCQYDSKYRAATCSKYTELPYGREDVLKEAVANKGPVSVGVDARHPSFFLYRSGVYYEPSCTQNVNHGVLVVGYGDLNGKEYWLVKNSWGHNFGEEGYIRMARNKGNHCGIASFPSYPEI

SMILES | Ki (Mammalian Cathepsin L) | Ki (Mammalian Cathepsin K) | Ki (Mammalian Cathepsin S)
Cc1cc(C(=O)N[C@@H](CC(C)C)C(=O)N[C@@H]2C(=O)CO[C@H]2C)oc1C [CAP6-L-Leu/drawing 71] | 670 nM | 2750 nM | 680 nM
Cc1cc(C(=O)N[C@@H](CC(C)C)C(=O)N[C@@H]2COCC2=O)oc1C [CAP6-L-Leu/drawing 73] | 190 nM | 330 nM | 480 nM
Cc1cc(C(=O)N[C@@H](Cc2ccc(O)cc2)C(=O)N[C@@H]2C(=O)CO[C@@H]2C)oc1C [CAP6-L-Tyr/drawing 69] | 55 nM | > 100000 nM | 2000 nM
Cc1cc(C(=O)N[C@@H](Cc2ccc(O)cc2)C(=O)N[C@H]2C(=O)CO[C@H]2C)oc1C [CAP6-L-Tyr/drawing 70] | 670 nM | > 100000 nM | 240 nM
Cc1cc(C(=O)N[C@@H](Cc2ccc(O)cc2)C(=O)N[C@@H]2COCC2=O)oc1C [CAP6-L-Tyr/drawing 73] | 140 nM | > 100000 nM | 2300 nM
CC(C)C[C@H](NC(=O)c1ccc(N(C)C)cc1)C(=O)N[C@H]1C(=O)CO[C@H]1C [CAP7-L-Leu/drawing 70] | 6800 nM | 170 nM | 4200 nM
CC(C)C[C@H](NC(=O)c1ccc(N(C)C)cc1)C(=O)N[C@H]1COCC1=O [CAP7-L-Leu/drawing 72] | 690 nM | 18 nM | 3100 nM
CC(C)C[C@H](NC(=O)c1ccc(N(C)C)cc1)C(=O)N[C@@H]1COCC1=O [CAP7-L-Leu/drawing 73] | 1100 nM | 23 nM | 3900 nM
CCCCC(NC(=O)c1ccc(N(C)C)cc1)C(=O)NC1C(=O)COC1C [CAP7-L-Nle/drawing 70] | 46700 nM | 3100 nM | 6800 nM
CCCC[C@H](NC(=O)c1ccc(N(C)C)cc1)C(=O)N[C@@H]1C(=O)CO[C@H]1C [CAP7-L-Nle/drawing 71] | 49900 nM | 1300 nM | 6200 nM
C[C@H]1OCC(=O)[C@H]1NC(=O)[C@H](CC(C)(C)C)NC(=O)c1ccc(N(C)C)cc1 [CAP7-L-tBu-Ala/drawing 69] | 13100 nM | 40 nM | 2700 nM
CCCC[C@H](NC(=O)c1ccoc1)C(=O)N[C@@H]1C(=O)CO[C@@H]1C [CAP8-L-Nle/drawing 69] | 54400 nM | 13200 nM | 1500 nM
CCCC[C@H](NC(=O)c1ccoc1)C(=O)N[C@H]1C(=O)CO[C@H]1C [CAP8-L-Nle/drawing 70] | > 100000 nM | > 100000 nM | 1000 nM
CC(C)CC[C@H](NC(=O)c1ccoc1)C(=O)N[C@@H]1C(=O)CO[C@@H]1C [CAP8-L-hLeu/drawing 69] | 38900 nM | 16000 nM | 970 nM
CC(C)CC[C@H](NC(=O)c1ccoc1)C(=O)N[C@H]1C(=O)CO[C@H]1C [CAP8-L-hLeu/drawing 70] | > 100000 nM | > 100000 nM | 450 nM
CC(C)CC[C@H](NC(=O)c1ccoc1)C(=O)N[C@@H]1C(=O)CO[C@H]1C [CAP8-L-hLeu/drawing 71] | > 100000 nM | > 100000 nM | 370 nM
CC(C)CC[C@H](NC(=O)c1ccoc1)C(=O)N[C@@H]1COCC1=O [CAP8-L-hLeu/drawing 73] | 61200 nM | 8700 nM | 440 nM
C[C@@H]1OCC(=O)[C@@H]1NC(=O)[C@H](CC(C)(C)C)NC(=O)c1ccoc1 [CAP8-L-tBu-Ala/drawing 70] | > 100000 nM | 19900 nM | 200 nM
